Reference: patent publication US6384080B1, “Anthranilic acid derivatives as inhibitors of the cGMP-phosphodiesterase” (Fujisawa Pharmaceutical Co., Ltd., priority 1998, dated 2002)

Legend:
[1] = biological target: T1, human platelet PDE-V (Homo sapiens, UniProt O76074); test: cGMP-Phosphodiesterase (PDE) assay, enzymatic inhibitory test; format: biochemical; conditions: human platelet PDE-V; 0.1 μM [3H]-cGMP substrate, 30° C., 10 minutes; read-out: Inhibitory activity IC50
T1 construct: Human platelet cGMP-PDE was separated from other isozymes in human platelets; from tissue; host or cells: human platelets
Procedure: cGMP-Phosphodiesterase (PDE) Assay
Human platelet cGMP-PDE was separated from other isozymes in human platelets by a modification of the method of Thompson et. al. (see Cyclic Nucleotide Phosphodiesterase (PDE), in Methods of Enzymatic analysis, Vol 4, p127-234, 1984). In enzyme inhibition assays, the test compounds were dissolved in DMSO and then diluted with assay buffer (50 mM Tris-HCl, 0.077 mg/ml dithiothreitol and 10 mg/ml snake venom, 1 mM EGTA, pH 8.0), at final concentrations ranging from 10^−10 to 10^−6 M. Assays were performed at 0.1 μM substrate ([^3H]-cGMP) concentration, at 30° C. for 10 minutes using enzyme dilutions which gave 10-20% hydrolysis of substrate. Each assay was initiated by addition of substrate and terminated by addition of anion exchange resin (Dowex® 1-X8, 250 mg/mg) followed by centrifugation for 10 minutes (3000 rpm, at 4° C.). Radioactivity of supernatant (^3H-GMP) was assayed by liquid scintillation counting.

Row | IC50 [1] | melting point | SMILES
1 | < 10 nM | 235 to 238 °C | O=C(NCc1ccc(F)c(Cl)c1)c1cc([N+](=O)[O-])ccc1NC(CO)CO [N-(3-Chloro-4-fluorobenzyl)-2-[2-hydroxy-1-(hydroxymethyl)ethylamino]-5-nitrobenzamide]
2 |  | 233 to 234 °C | O=C(NCc1ccccc1)c1cc([N+](=O)[O-])ccc1N[C@H]1CC[C@H](O)CC1 [Example 51, N-benzyl-2-(trans-4-hydroxycyclohexylamino)-5-nitrobenzamide]
3 | < 10 nM | 112 to 115 °C | CCCCC(CO)Nc1ccc([N+](=O)[O-])cc1C(=O)NCc1ccc2c(c1)OCO2 (stereo not shown) [2-[1-(1-Hydroxymethyl)pentylamino]-5-nitro-N-(1,3-benzodioxol-5-ylmethyl)benzamide]
4 |  | 140 to 142 °C | COc1ccc(CNC(=O)c2cc([N+](=O)[O-])ccc2NNCC(F)(F)F)cc1OC [Example 69, N-(3,4-Dimethoxybenzyl)-5-nitro-2-[2-(2,2,2-trifluoroethyl)hydrazino]benzamide]
5 |  | 142 to 143.5 °C | COc1ccc(CNC(=O)c2cc(C#N)ccc2N[C@@H](C)CO)cc1OC [88(1), (S)-5-Cyano-N-(3,4-dimethoxybenzyl)-2-(2-hydroxy-1-methylethylamino)benzamide]
6 |  | 161 to 162 °C | COc1ccc(CNC(=O)c2cc([N+](=O)[O-])ccc2NC(C)(C)CO)cc1OC [Example 66, N-(3,4-Dimethoxybenzyl)-2-(2-hydroxy-1,1-dimethyl-ethylamino)-5-nitrobenzamide]
7 | < 10 nM | 150 to 152 °C | COc1ccc(CNC(=O)c2cc([N+](=O)[O-])ccc2N[C@@H](CO)CCSC)cc1OC [N-(3,4-dimethoxylbenzyl)-2-[(R)-1-hydroxymethyl-3-(methylthio)propylamino]-5-nitrobenzamide]
8 | < 10 nM | 178 to 179 °C | Cc1ccc(CNC(=O)c2cc([N+](=O)[O-])ccc2N[C@@H](C)CO)cc1Cl [(S)-N-(3-Chloro-4-methylbenzyl)-2-(2-hydroxy-1-methylethylamino)-5-nitrobenzamide]
9 |  | 168 to 169 °C | CC[C@@H](CO)Nc1ccc([N+](=O)[O-])cc1C(=O)NCc1ccc(OC)c(OC)c1 [Example 65, (S)-N-(3,4-Dimethoxybenzyl)-2-[1-(hydroxymethyl)-propylamino]-5-nitrobenzamide]
10 |  | 108 to 110 °C | COc1ccc(CNC(=O)c2cc(S(=O)(=O)N3CCNCC3)ccc2N[C@H]2CC[C@H](O)CC2)cc1OC [153(2), N-(3,4-Dimethoxybenzyl)-2-(trans-4-hydroxycyclohexylamino)-5-(piperazinosulfonyl)benzamide]
11 | < 10 nM | 127 to 129 °C | C[C@H](CO)Nc1ccc([N+](=O)[O-])cc1C(=O)NCc1ccc(Oc2ccccc2)cc1 [(R)-2-(2-Hydroxy-1-methylethyl)amino-5-nitro-N-(4-phenoxybenzyl)benzamide]
12 |  | 131 to 132 °C | COc1ccc(CNC(=O)c2cc([N+](=O)[O-])ccc2N[C@@H](C)CO)cc1OC [Example 68, (S)-N-(3,4-Dimethoxybenzyl)-2-(2-hydroxy-1-methyl-ethylamino)-5-nitrobenzamide]
13 |  | 166 to 168 °C | C[C@H](CO)Nc1ccc([N+](=O)[O-])cc1C(=O)NCc1ccc2c(c1)OCO2 [Example 7, (R)-2-(2-Hydroxy-1-methylethylamino)-5-nitro-N-(1,3-benzodioxol-5-ylmethyl)benzamide]
14 |  | 140 °C | COc1ccc(CNC(=O)c2cc([N+](=O)[O-])ccc2NC2CC=CCC2)cc1F (stereo not shown) [153(3), 2-(3-cyclohexenylamino)-N-(3-fluoro-4-methoxybenzyl)-5-nitrobenzamide]
15 |  | 98 to 101 °C | COc1cc(CNC(=O)c2cc([N+](=O)[O-])ccc2N[C@@H](C)CO)cc(OC)c1 [Example 107, (S)-N-(3,5-Dimethoxybenzyl)-2-(2-hydroxy-1-methylethyl)amino-5-nitrobenzamide]
16 | < 10 nM | 168 to 170 °C | O=C(NCc1ccc(-c2ccccc2)cc1)c1cc([N+](=O)[O-])ccc1N[C@H]1CC[C@@H](O)CC1 [2-(cis-4-Hydroxycyclohexylamino)-5-nitro-N-(4-phenylbenzyl)benzamide]

Row | IC50 [1] | melting point | SMILES
17 |  | 154 to 155 °C | COc1ccc(CNC(=O)c2cc([N+](=O)[O-])ccc2N[C@@H]2CCC[C@H]2O)cc1OC (relative stereo) [Example 67, N-(3,4-Dimethoxybenzyl)-2-(trans-2-hydroxycyclopentylamino)-5-nitrobenzamide]
18 |  | 176 to 177 °C | COc1cc(CNC(=O)c2cc([N+](=O)[O-])ccc2NC(CO)CO)ccc1Cl [Example 91, N-(4-Chloro-3-methoxybenzyl)-2-[2-hydroxy-1-(hydroxymethyl)ethylamino]-5-nitrobenzamide]
19 |  | 189 to 190 °C | COc1ccc(CNC(=O)c2cc(-c3ncc[nH]3)ccc2N[C@H]2CC[C@H](O)CC2)cc1OC [Example 90, N-(3,4-Dimethoxybenzyl)-2-(trans-4-hydroxycyclohexylamino)-5-(1H-imidazol-2-yl)benzamide]
20 |  | 171 to 173 °C | O=C(NCc1ccccc1)c1cc([N+](=O)[O-])ccc1NC(CO)CO [Example 55, N-Benzyl-2-[2-hydroxy-1-(hydroxymethyl)ethylamino]-5-nitrobenzamide]
21 | < 10 nM | 157 to 158 °C | Cc1ccc(CNC(=O)c2cc([N+](=O)[O-])ccc2N[C@H]2CC[C@@H](O)CC2)cc1C [N-(3,4-Dimethylbenzyl)-2-(cis-4-hydroxycyclohexylamino)-5-nitrobenzamide]
22 |  | 205 to 206 °C | O=C(NCc1ccc2c(c1)OCO2)c1cc([N+](=O)[O-])ccc1N[C@H]1CC[C@H](O)CC1 [Example 1(1), 2-(trans-4-hydroxycyclohexylamino)-5-nitro-N-(1,3-benzodioxol-5-ylmethyl)benzamide]
23 | < 10 nM |  | O=C(NCc1ccc(Cl)cc1)c1cc([N+](=O)[O-])ccc1NC1CCCC1 [N-(4-Chlorobenzyl)-2-(cyclopentylamino)-5-nitrobenzamide]
24 |  | 234 to 235.5 °C | COc1cc(CNC(=O)c2cc(S(C)(=O)=O)ccc2N[C@H]2CC[C@H](O)CC2)ccc1Cl [Example 102, N-(4-Chloro-3-methoxybenzyl)-2-(trans-4-hydroxycyclohexylamino)-5-methanesulfonylbenzamide]
25 | < 10 nM |  | CC[C@H](CO)Nc1ccc([N+](=O)[O-])cc1C(=O)NCc1ccc2c(c1)OCO2 [(R)-2-(1-Ethyl-2-hydroxyethylamino)-5-nitro-N-(1,3-benzodioxol-5-ylmethyl)benzamide]
26 |  | 128 to 130 °C | CC[C@@H](CO)Nc1ccc([N+](=O)[O-])cc1C(=O)NCc1ccc2c(c1)OCO2 [2(1), (S)-2-[1-(Hydroxymethyl)propylamino]-5-nitro-N-(1,3-benzodioxol-5-ylmethyl)benzamide]
27 |  | 226.5 to 227 °C | COc1ccc(CNC(=O)c2cc([N+](=O)[O-])ccc2Nc2ccc3[nH]cnc3c2)cc1OC [Example 80, 2-(1H-Benzimidazol-5-ylamino)-N-(3,4-dimethoxybenzyl)-5-nitrobenzamide]
28 | < 10 nM |  | COc1ccc(CNC(=O)c2cc([N+](=O)[O-])ccc2NC2CCCC2)cc1 [2-(Cyclopentylamino)-N-(4-methoxybenzyl)-5-nitrobenzamide]
29 | < 10 nM |  | COc1ccc(CNC(=O)c2cc([N+](=O)[O-])ccc2NC2COC(C)(C)OC2)cc1OC [N-(3,4-dimethoxybenzyl)-2-(2,2-dimethyl-1,3-dioxan-5-ylamino)-5-nitrobenzamide]
30 | < 10 nM |  | O=C(NCc1ccc2c(c1)OCO2)c1cc([N+](=O)[O-])ccc1NC1(CO)CCCC1 [2-[1-(Hydroxymethyl)cyclopentylamino]-5-nitro-N-(1,3-benzodioxol-5-ylmethyl)benzamide]
31 | < 10 nM |  | O=C(NCc1ccc(C(F)(F)F)cc1)c1cc([N+](=O)[O-])ccc1NC1CCCC1 [2-(Cyclopentylamino)-5-nitro-N-[4-(trifluoromethyl)benzyl]benzamide]
32 | < 10 nM |  | COc1ccc(CNC(=O)c2cc([N+](=O)[O-])ccc2N[C@H]2CC[C@@H](NC=O)CC2)cc1OC [2-(cis-4-Formamidocyclohexylamino)-N-(3,4-dimethoxybenzyl)-5-nitrobenzamide]

Row | SMILES | IC50 [1] | melting point
33 | COc1ccc(CNC(=O)c2cc([N+](=O)[O-])ccc2N[C@H]2CC[C@@H](OC(C)=O)CC2)cc1OC [2-[cis-4-(acetoxy)cyclohexylamino]-N-(3,4-dimethoxybenzyl)-5-nitrobenzamide] | < 10 nM | 147 to 148 °C
34 | COc1ccc(CNC(=O)c2cc(S(=O)(=O)N3CCN(C(=O)OC(C)(C)C)CC3)ccc2N[C@H]2CC[C@H](O)CC2)cc1OC [153(1), 5-[4-(tert-Butoxycarbonyl)piperazin-1-ylsulfonyl]-N-(3,4-dimethoxybenzyl)-2-(trans-4-hydroxycyclohexylamino)benzamide] |  | 221 to 222 °C
35 | COc1ccc(CNC(=O)c2cc([N+](=O)[O-])ccc2N[C@H]2CC[C@H](NC(=NC(=O)OC(C)(C)C)NC(=O)OC(C)(C)C)CC2)cc1OC [2-{trans-4-[2,3-bis(tert-butoxycarbonyl)guanidino]cyclohexylamino}-N-(3,4-dimethoxybenzyl)-5-nitrobenzamide] | < 10 nM | 
